Read-outs that look alike come from different tables or passages of the source.
Key:
[1] = tested on: Pf (3D7); assay: Ligand efficiency metrics (LE, LLE, LELP), selectivity and fold changes; parameters: species or system Plasmodium falciparum; conditions: for drop in potency: Pf (3D7), relative to the comparator compound of the sentence
[2] = tested on: MRC-5 cell line; assay: Mammalian cell growth inhibition counter-screen (resazurin); assay type: cell-based, human; conditions: Homo sapiens, MRC5; supplementary csv; read-out: Hs MRC-5 EC50
Description: (§1) Plasmodium falciparum screening
(§2) Assays against P. falciparum were conducted as previously described.1 Cultures of the widely-used malaria reference strain of chloroquine-sensitive Plasmodium falciparum strain 3D7 were maintained in a 5% suspension of human red blood cells (obtained from East of Scotland Blood Transfusion Service, Ninewells Hospital, Dundee) cultured in RPMI 1640 medium (pH 7.3) supplemented with 0.5% Albumax II (Gibco Life Technologies, San Diego, CA), 12 mM sodium bicarbonate, 0.2 mM hypoxanthine and 20 mg/L gentamicin at 37°C, in a humidified atmosphere of 1% O 2, 3% CO2 with a balance of nitrogen. Growth inhibition was quantified using a fluorescence assay utilising the binding of SYBR green to double stranded DNA, which emits a fluorescent signal at 528 nm after excitation at 485nm.2 Mefloquine (potency range 30-60 nM) was used as a drug control to monitor the quality of the assay (Z’ = 0.6 to 0.8, Signal to background >3, where Z’ is a measure of the discrimination between the positive and negative controls on a screen plate). A 96-well [3H]-Hypoxanthine incorporation assay was also developed as a secondary assay in order to validate compounds from the initial screen in an orthogonal platform.3 Compound bioactivity from both assays was expressed as […]
(§3) P. falciparum (panel of resistant strains) in vitro assay. (Swiss TPH)
(§4) All Plasmodium strains were cultured according to Trager and Jensen and are described at www.beiresources.org (resistant strains: K1, W2, 7G8, TM90C2A, D6 and V1/S, sensitive strain:
(§5) NF54). EC50 values were determined in vitro by measuring incorporation of the nucleic acid precursor […]
(§6) Mammalian Cell Growth Inhibition assay
(§7) A counter-screen against normal diploid human fibroblasts (MRC-5 cell line) was carried out to exclude non-selective, and toxic compounds. The assay was essentially carried out as described previously.4 Cells were plated and incubated overnight to allow them to adhere as monolayers. A working stock of each test compound was transferred to an intermediate 384-well plate and pre-diluted with minimum essential media (MEM). The pre-diluted stocks were then transferred onto the cell monolayers, and the plates were incubated for 68 h. Resazurin, to a final concentration of 50 μM, was added to each well, after which plates were incubated for a further 3 h and measured for fluorescence (λex=528 nm, λem=590 nm)
(§8) In vitro Cell Assay Data Analysis.
(§9) All data was processed using IDBS ActivityBase® raw data was converted into per cent inhibition through linear regression by setting the high inhibition control as 100% and the no inhibition control as 0%. Quality control criteria for passing plates were as follows: Z’> 0.5, S:B> 3, %CV(no inhibition < 15 . The formula used to calculate Z’ is 1 3× (St D e v _ hi gh + St D e v _ low) . […]
(§10) All EC50 Curve fitting was undertaken using XLFit version 4.2 using Model 205 with the following 4 parametric equation: y = A + B A A + ($-&) ,where A=% inhibition at bottom, B=% […]
(§11) inhibition at top, C= EC50, D= slope, x= inhibitor concentration and y= % inhibition. […]
(§12) reach 100% of inhibition, B was fixed to 100 only when at least 50% of inhibition was reached.
(§13) Plasmodium falciparum late stage (IV-V) gametocyte high content imaging assay Plasmodium falciparum NF54-pfs16-LUC-GFP stage IV-V Gametocytes were produced as described previously.5 Compounds were solubilized in DMSO and serially diluted in three concentrations per log standard curves in DM SO. One µl of compound was subsequently diluted in 25µl of water (4% DMSO) and 5µl transferred into the base of 384 well PerkinElmer CellCarrier plates. Forty-five µl of stage IV-V gametocytes (10%P in 0.1%H) were added to the imaging plates which were in turn sealed with a gas permeable membrane and incubated at 37°C, 5% CO 2, 5% O2, 90% N2 and 60% humidity […]
(§14) Post incubation, 5µl of MitoTracker® Red CM -H2Xros (MTR) solution (0.66ug/ml) was added to all wells and the plates incubated for a further 16hours. […]

[3] = as above; assay type: cell-based, human; conditions: human, MRC-5 cells (normal diploid human fibroblasts)
Description: as §1, §2, §3, §4, §5, §6, §7, §8, §9, §10, §11, §12, §13, §14

[4] = Intrinsic clearance (Cli) in mouse liver microsomes; assay type: in vitro ADME
Source text: as §11, §12, §13
Post incubation, 5µl of MitoTracker® Red CM -H2Xros (MTR) solution (0.66ug/ml) was added to all wells and the plates incubated for a further 16hours. The assay plates were then imaged and the number of viable gametocytes determined for test compounds plus 0.4%DMSO and 5µM Puromycin.
(0.4%DMSO) control values. Percent inhibition was plotted against log compound concentration using a 4 parameter log dose, non-linear regression analysis, with sigmoidal dose response (variable slope) curve fit using Prizm 4.0. IC50 values were obtained from this curve fit. The compound testing was performed in duplicate point within two separate experiments.
Plasmodium berghei ookinete development assay
Assay was performed as previously reported.6 Briefly blood containing P. berghei CTRPp-GFP gametocytes was rapidly harvested from infected mice and introduced to test compounds pre-diluted in ookinete medium (to induce gamete formation and support ookinete development) in 96-well plates. Plates were incubated in the dark at 21°C for 22 hr before GFP fluorescence intensity measured in a plate reader. % inhibition of ookinete formation was calculated with reference to the fluorescence intensity values of a positive control (20 µM cycloheximide) and a solvent-only negative control (DMSO). All assays were performed in triplicate independent experiments and EC50 values calculated in Graphpad Prism.
The aqueous solubility of the test compounds was measured using laser nephelometry, as described previously.7 Compounds were subject to serial dilution from 10 mg/mL to 0.5 mg/mL in DMSO. An aliquot was then mixed with MilliQ water to obtain an aqueous dilution plate with a final concentration range of 100 – 5 μg/mL, with a final DMSO concentration of 1.0%. Triplicate aliquots were transferred to a flat bottomed polystyrene plate which was immediately read on the NEPHELOstar (BMG Lab Technologies). The amount of laser scatter caused by insoluble particulates (relative nephelometry units, RNU) was plotted against compound concentration using a segmental regression fit, with the point of inflection being quoted as the compounds aqueous solubility (μg/mL; […]
Intrinsic Clearance (Cli) experiments
The procedure was carried out as reported previously.7 Test compound (0.5 µM) was incubated with female CD1 mouse, male sprague-dawley rat or pooled human mixed gender liver microsomes (Xenotech LLC TM; 0.5 mg/mL 50 mM potassium phosphate buffer, pH 7.4) and the reaction initiated […]
by the addition of excess NADPH (8 mg/mL 50 mM potassium phosphate buffer, pH 7.4).
Immediately, at time zero, then at 3, 6, 9, 15 and 30 min an aliquot (50 μL) of the incubation mixture was removed and mixed with acetonitrile (100 μL) to stop the reaction. Internal standard was added to all samples, the samples centrifuged to sediment precipitated protein and the plates then sealed prior to UPLC-MS/MS analysis using a Quattro Premier XE (Waters Corporation, USA).
XLfit (IDBS, UK) was used to calculate the exponential decay and consequently the rate constant (k) from the ratio of peak area of test compound to internal standard at each timepoint. The rate of […]

[5] = tested on: Plasmodium falciparum strain 3D7; assay: Plasmodium falciparum screening, SYBR green growth inhibition; assay type: cell-based
Description: as §1, §2, §3, §4, §5, §6, §7, §8, §9, §10, §11, §12, §13, §14

[6] = tested on: P. berghei ANKA strain; assay: In vivo antimalarial efficacy in the P. berghei mouse model (Peter's test); parameters: species or system Plasmodium berghei in female NMRI mice; conditions: 4 × 10 mg/kg oral, once daily; mice cured / mice in group
Description: Compound 41 was dosed as a bolus solution intravenously at 1 mg free base/kg (dose volume: 5 mL/kg; dose vehicle: 5% DMSO;saline) or by gavage orally as solution at 3 mg free base/kg (dose volume: 10 mL/kg; Dose vehicle: 0.5% w/v hydroxypropylmethylcellulose with 0.4% v/v Tween 80 and 0.5% v/v benzyl alcohol) to male Sprague Dawley rats (n=3/dose route). Blood samples were taken from each rat at 5, 15, 30 min, 1, 2, 4, 6, 8, 24 and 30 h post-dose, mixed with two volumes of distilled water and stored frozen until UPLC/MS/MS analysis.
Pharmacokinetic parameters were derived from the blood concentration time curve for each compound using PKsolutions software v 2.0 (Summit Research Services, USA).
In vivo antimalarial efficacy studies in P. berghei. (Swiss TPH)
In vivo efficacy was conducted as previously described10 with the modification that female NMRI mice (n = 3) were infected with a GFP-transfected P. berghei ANKA strain (donated by A. P. Waters and C. J. Janse, Leiden University, The Netherlands), and parasitaemia determined (96 h after infection) using standard flow cytometry techniques. Compounds 1, 25, 27, 30 and 49 were prepared in 10% DM SO, 40% PEG 400 and 50% water prior to administration orally, once daily for 4 days.
Compounds 40, 41, 43 and 44 were prepared in a non-solubilizing, standard suspension vehicle called HPMC (0.5% [wt/vol] hydroxypropylmethylcellulose, 0.5% [vol/vol] benzyl alcohol, 0.4% [vol/vol] Tween 80, and 0.9% [wt/vol] sodium chloride in water) prior to administration orally, once daily for 4 days. Blood samples were collected on day 4 (96 h after infection) in two volumes water. Animals […]
and then hourly up to 4 h after dosing each day. The animals were selected randomly for each group

[7] = 3D7, supplementary csv, read-out: Pf (3D7) EC50

Cc1ccc(-c2cc(C(=O)Nc3cccnc3)c3cc(Br)ccc3n2)cc1 [Compound 1]
LLE (ligand-lipophilicity efficiency) [1]: 2.6

Cc1ccc(-c2cc(C(=O)NCCCN(C)C)c3cc(Cl)ccc3n2)cc1 [Compound 14, 6-Chloro-N-(3-(dimethylamino)propyl)-2-(p-tolyl)quinoline-4-carboxamide]
EC50 [2]: 5.55 µM

Cc1ccc(-c2cc(C(=O)NCCN3CCCCC3)c3cc(Cl)ccc3n2)cc1 [Compound 17]
EC50 [2]: 7.4 µM

Cc1ccc(-c2cc(C(=O)NCCN3CCCC3)c3cc(F)ccc3n2)cc1 [Compound 19]
LLE (ligand-lipophilicity efficiency) [1]: 3.2

Cc1cc(Nc2cc(C(=O)NCCN3CCCC3)c3cc(F)ccc3n2)on1 [Compound 20]
EC50 at 68 h [3]: > 50 µM

O=C(NCCN1CCCC1)c1cc(N2CCn3ccnc3C2)nc2ccc(F)cc12 [Compound 22, 2-(5,6-Dihydroimidazo[1,2-a]pyrazine-7(8H)-yl)-6-fluoro-N-(2-(pyrrolidin-1-yl)ethyl)quinoline-4-carboxamide]
EC50 at 68 h [3]: > 50 µM

O=C(NCCN1CCCC1)c1cc(N2CCC(N3CCOCC3)CC2)nc2ccc(Cl)cc12 [Compound 24, 6-Chloro-2-(4-morpholinopiperidin-1-yl)-N-(2-(pyrrolidin-1-yl)ethyl)quinoline-4-carboxamide]
LLE (ligand-lipophilicity efficiency) [1]: 4.2

O=C(NCCN1CCCC1)c1cc(NCCN2CCOCC2)nc2ccc(F)cc12 [Compound 26, 6-Fluoro-2-((3-morpholinoethyl)amino)-N-(2-(pyrrolidin-1-yl)ethyl)quinoline-4-carboxamide]
MLM Cli ([4]; mouse liver microsomes): < 0.5 mL/min/g

O=C(NCCN1CCC(F)CC1)c1cc(NCCCN2CCOCC2)nc2ccc(F)cc12 [Compound 31]
EC50 [2]: 40.9 µM

O=C(NCCN1CCOCC1)c1cc(NCCCN2CCOCC2)nc2ccc(F)cc12 [Compound 32]
EC50 [2]: > 50 µM

O=C(NCCN1CCC(F)(F)CC1)c1cc(NCCCN2CCOCC2)nc2ccc(F)cc12 [Compound 33]
EC50 [2]: > 50 µM

O=C(NCCN1CCCC(F)(F)C1)c1cc(NCCCN2CCOCC2)nc2ccc(F)cc12 [Compound 34]
EC50 [2]: > 50 µM

O=C(NCCN1CCC(F)(F)C1)c1cc(NCCCN2CCOCC2)nc2ccc(F)cc12 [Compound 35]
EC50 [2]: > 50 µM

O=C(NCCN1CCCC1)c1cc(-c2ccc(C(=O)N3CCOCC3)cc2)nc2ccc(F)cc12 [Compound 39, 6-Fluoro-2-(4-(morpholine-4-carbonyl)phenyl)-N-(2-(pyrrolidin-1-yl)ethyl)quinoline-4-carboxamide]
EC50 at 68 h [3]: > 50 µM

O=C(NCCN1CCCC1)c1cc(-c2cccc(CN3CCOCC3)c2)nc2ccc(F)cc12 [Compound 45]
EC50 [5, 7]: 10.4 µM

O=C(NCCN1CCOCC1)c1cc(-c2ccc(CN3CCOCC3)cc2)nc2ccc(F)cc12 [Compound 46]
drop in potency [1]: 12 fold
MLM Cli ([4]; mouse liver microsome): <0.5 mL min^–1 g^–1

CN(CCN1CCCC1)C(=O)c1cc(-c2ccc(CN3CCOCC3)cc2)nc2ccc(F)cc12 [Compound 47, 6-Fluoro-N-methyl-2-(4-(morpholinomethyl)phenyl)-N-(2-(pyrrolidin-1-yl)ethyl)quinoline-4-carboxamide]
drop in potency [1]: 87 fold
MLM Cli ([4]; mouse liver microsome): <0.5 mL min^–1 g^–1

O=C(NCCNC1CC1)c1cc(-c2ccc(CN3CCOCC3)cc2)nc2ccc(F)cc12 [Compound 48, N-(2-(Cyclopropylamino)ethyl)-6-fluoro-2-(4-(morpholinomethyl)phenyl)quinoline-4-carboxamide]
EC50 [5, 7]: 0.0024 µM
MLM Cli ([4]; mouse liver microsome): 2 mL min^–1 g^–1

O=C(NCCN1CCC1)c1cc(-c2ccc(CN3CCOCC3)cc2)nc2ccc(F)cc12 [Compound 49, N-(2-(Azetidin-1-yl)ethyl)-6-fluoro-2-(4-(morpholinomethyl)phenyl)quinoline-4-carboxamide]
cure [6]: 1/3
MLM Cli ([4]; mouse liver microsome): 0.5 mL min^–1 g^–1

OC(c1cc(C(F)(F)F)nc2c(C(F)(F)F)cccc12)C1CCCCN1 (stereo not drawn) [Mefloquine, reference compound]
EC50 ([5]; 3D7, quality control of the assay, read-out: potency range (drug control)): 0.03 to 0.06 µM
